Measured values published in patent US11883455B2, “Nigella sativa oil composition” (N.S. OILS LTD., priority 2018, dated 2024).

System: production of nitric oxide (NO) by murine macrophages (RAW 264.7 cell line) activated by lipopolysaccharide (LPS)
Experiment: Nitric oxide (NO) release by LPS-activated RAW 264.7 macrophages, Griess Reagent System
Format: cell-based
Description: In addition, positive control cells were treated with 20 μM dexamethasone.

Row | SMILES | NO inhibition by p-cymene alone (p-cymene only 0.1%, 0.25%, 0.5%, 0.75% solutions, final dilution 1:200,000) | NO inhibition by carvacrol alone (carvacrol only 0.05%, 0.1%, 0.15% solutions, dilutions 1:500,000, 1:200,000, 1:100,000)
1 | Cc1ccc(C(C)C)cc1 [p-cymene] | None of the p-cymene-only dilutions caused any NO inhibition | 
2 | Cc1ccc(C(C)C)cc1O [carvacrol] |  | None of the carvacrol-only dilutions caused any NO inhibition
